Test results: US8129371B2, “Thienopyrimidine and pyrazolopyrimidine compounds and their use as mTOR kinase and PI3 kinase inhibitors” (Wyeth LLC, priority 2007, dated 2012)
Where two headings read alike, the source gives them in different places.

What was measured:
[1] = test system: breast line MDA468; assay: In vitro cell culture growth assay (MTS), MDA468; assay type: cell-based; conditions: Homo sapiens, 72 h, MDA468 cells, three days after drug treatment
Summary of the method: (§1)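 Following a one-day attachment period, cells received inhibitors for 3 days. MTS metabolism by viable cells was quantified at 490 nm absorbance and converted to percent of same-plate vehicle control growth.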

[2] = target: T1, Human mTOR (FLAG-TOR) (Homo sapiens, UniProt P42345); assay: Human mTOR kinase assay with purified enzyme, DELFIA format; assay type: biochemical
T1 construct: FLAG
Summary of the method: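 Purified FLAG-mTOR in HEPES pH 7.4 buffer with 10 mM MnCl2 was preincubated with inhibitor and reacted 2 h at room temperature with His6-S6K substrate, then stopped with EDTA/EGTA. Phospho-T389 S6K detected by DELFIA with Eu-labelled antibody (40 ng/mL) after plate capture; inhibition computed from signal.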

[3] = target: T2, PI3K (Homo sapiens, UniProt P48736); assay: Fluorescence polarization assay for PI3K; assay type: biochemical; conditions: read-out: PI3 Kinase γ IC50
T2 construct: PI3 Kinase γ IC50; other: PI3 Kinase γ; other: PI3 Kinase γ isoform, fluorescence polarization
Summary of the method: (§2)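 PI3K was preincubated with compound (final DMSO 1%), and the reaction was started with PIP2/ATP substrate and run 30–60 min. It was stopped with a detector mix giving 10 nM red probe and 70 nM GST-GRP.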

[4] = target: T3, PI3K (Homo sapiens, UniProt P42336); assay: Fluorescence polarization assay for PI3K; assay type: biochemical; conditions: read-out: PI3 Kinase α IC50
T3 construct: PI3 Kinase α IC50; other: PI3 Kinase α; other: PI3 Kinase α isoform, fluorescence polarization
Summary of the method: as §2

[5] = test system: prostate line LNCap; assay: In vitro cell culture growth assay (MTS), LNCap; assay type: cell-based; conditions: Homo sapiens, LNCaP, 72 h, LNCap cells, three days after drug treatment
Summary of the method: as §1

[6] = purified human mTOR enzyme, DELFIA format
[7] = PI3 Kinase γ isoform, fluorescence polarization
[8] = PI3 Kinase α isoform, fluorescence polarization

T2 sequence (P48736 whole entry, canonical isoform): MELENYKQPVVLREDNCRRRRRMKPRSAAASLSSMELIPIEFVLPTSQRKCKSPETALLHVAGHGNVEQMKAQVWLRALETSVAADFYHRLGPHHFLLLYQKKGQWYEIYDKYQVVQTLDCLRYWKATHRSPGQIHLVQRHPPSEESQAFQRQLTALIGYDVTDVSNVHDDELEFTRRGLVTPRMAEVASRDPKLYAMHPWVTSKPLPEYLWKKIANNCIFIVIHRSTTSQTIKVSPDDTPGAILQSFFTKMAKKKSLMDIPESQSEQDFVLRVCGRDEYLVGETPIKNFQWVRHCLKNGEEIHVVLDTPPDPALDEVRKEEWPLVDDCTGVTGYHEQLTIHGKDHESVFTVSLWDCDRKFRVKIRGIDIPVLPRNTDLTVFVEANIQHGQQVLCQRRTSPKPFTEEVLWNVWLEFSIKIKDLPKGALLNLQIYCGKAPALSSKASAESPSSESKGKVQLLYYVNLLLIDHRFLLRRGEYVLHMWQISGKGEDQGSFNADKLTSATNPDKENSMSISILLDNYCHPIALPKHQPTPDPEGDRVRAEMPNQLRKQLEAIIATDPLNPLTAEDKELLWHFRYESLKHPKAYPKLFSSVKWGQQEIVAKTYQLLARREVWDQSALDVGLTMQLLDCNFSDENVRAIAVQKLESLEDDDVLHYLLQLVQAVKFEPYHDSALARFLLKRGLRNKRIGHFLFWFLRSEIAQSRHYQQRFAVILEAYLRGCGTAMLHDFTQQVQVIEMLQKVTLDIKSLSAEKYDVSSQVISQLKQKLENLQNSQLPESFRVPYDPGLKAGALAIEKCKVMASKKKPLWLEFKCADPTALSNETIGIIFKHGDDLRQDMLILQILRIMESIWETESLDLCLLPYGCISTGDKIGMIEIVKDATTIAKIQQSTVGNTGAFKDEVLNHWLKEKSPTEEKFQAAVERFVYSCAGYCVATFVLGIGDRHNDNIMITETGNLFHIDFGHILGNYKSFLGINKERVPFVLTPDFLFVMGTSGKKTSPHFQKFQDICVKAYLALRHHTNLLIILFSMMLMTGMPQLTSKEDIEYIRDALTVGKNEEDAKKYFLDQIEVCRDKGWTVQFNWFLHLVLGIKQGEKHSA
T3 sequence (P42336 whole entry, canonical isoform): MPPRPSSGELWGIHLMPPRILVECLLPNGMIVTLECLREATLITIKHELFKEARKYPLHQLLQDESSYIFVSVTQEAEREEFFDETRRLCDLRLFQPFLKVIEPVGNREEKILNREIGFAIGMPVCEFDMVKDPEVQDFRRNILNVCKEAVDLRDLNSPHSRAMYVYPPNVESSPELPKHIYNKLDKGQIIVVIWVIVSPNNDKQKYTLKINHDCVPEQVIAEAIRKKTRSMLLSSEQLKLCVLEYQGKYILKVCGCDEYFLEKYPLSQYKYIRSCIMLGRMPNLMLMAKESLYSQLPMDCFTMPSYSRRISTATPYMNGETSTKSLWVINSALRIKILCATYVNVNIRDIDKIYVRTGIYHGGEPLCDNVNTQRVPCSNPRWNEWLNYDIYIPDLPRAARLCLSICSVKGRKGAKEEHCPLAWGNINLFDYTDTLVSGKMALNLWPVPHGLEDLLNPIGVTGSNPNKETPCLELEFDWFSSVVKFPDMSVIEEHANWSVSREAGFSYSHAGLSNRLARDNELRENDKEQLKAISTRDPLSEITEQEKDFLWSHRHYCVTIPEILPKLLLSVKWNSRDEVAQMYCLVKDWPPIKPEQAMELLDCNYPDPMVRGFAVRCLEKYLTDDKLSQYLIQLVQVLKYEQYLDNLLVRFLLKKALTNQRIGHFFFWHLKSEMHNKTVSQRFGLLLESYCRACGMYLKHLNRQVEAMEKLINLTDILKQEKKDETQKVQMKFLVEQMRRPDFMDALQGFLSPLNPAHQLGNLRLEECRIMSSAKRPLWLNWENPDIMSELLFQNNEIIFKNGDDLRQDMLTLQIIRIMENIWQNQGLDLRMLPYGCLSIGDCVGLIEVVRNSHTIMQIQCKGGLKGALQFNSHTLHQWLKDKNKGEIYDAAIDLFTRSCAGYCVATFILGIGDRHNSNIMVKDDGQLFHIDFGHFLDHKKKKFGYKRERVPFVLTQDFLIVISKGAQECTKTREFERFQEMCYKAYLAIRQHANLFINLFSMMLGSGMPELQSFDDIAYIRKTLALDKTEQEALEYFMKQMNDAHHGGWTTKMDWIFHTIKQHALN

| Structure (SMILES) | IC50 [1] [nM] | IC50 [2] [nM] | IC50 ([3]; PI3 Kinase γ) [nM] | IC50 ([4]; PI3 Kinase α) [nM] | IC50 [5] [nM] | IC50 [2, 6] [nM] | IC50 [3, 7] [nM] | IC50 [4, 8] [nM] |
| --- | --- | --- | --- | --- | --- | --- | --- | --- |
| CC(C)n1ncc2c(N3CC4CCC(C3)O4)nc(-c3ccc(NC(=O)NCCO)cc3)nc21 [Example 143, 1-(2-hydroxyethyl)-3-{4-[1-isopropyl-4-(8-oxa-3-azabicyclo[3.2.1]oct-3-yl)-1H-pyrazolo[3,4-d]pyrimidin-6-yl]phenyl}urea] | 70 | 0.076 | 4580 | 246 | 10 |  |  |  |
| O=C(Nc1ccc(-c2nc(N3CC4CCC(C3)O4)c3cnn(CCO)c3n2)cc1)Nc1cccnc1 [Example 199, 1-{4-[1-(2-hydroxyethyl)-4-(8-oxa-3-azabicyclo[3.2.1]oct-3-yl)-1H-pyrazolo[3,4-d]pyrimidin-6-yl]phenyl}-3-pyridin-3-ylurea] | 110 | 0.46 | 3990 | 174 | 90 |  |  |  |
| CCn1ncc2c(N3CC4CCC(C3)O4)nc(-c3ccc(NC(=O)OCC(C)O)cc3)nc21 (stereo not drawn) [Example 191, 2-hydroxypropyl {4-[1-ethyl-4-(8-oxa-3-azabicyclo[3.2.1]oct-3-yl)-1H-pyrazolo[3,4-d]pyrimidin-6-yl]phenyl}carbamate] | 780 | 3.55 | > 10000 | 6640 | 210 |  |  |  |
| Cn1ncc2c(N3CC4CCC(C3)O4)nc(-c3ccc(NC(=O)Nc4ccc(N5CCOCC5)nc4)cc3)nc21 [Example 237, 1-{4-[1-methyl-4-(8-oxa-3-azabicyclo[3.2.1]oct-3-yl)-1H-pyrazolo[3,4-d]pyrimidin-6-yl]phenyl}-3-(6-morpholin-4-ylpyridin-3-yl)urea] | 52 | 0.37 | > 10000 | 1350 | 7 |  |  |  |
| COC(=O)N1CCC(n2ncc3c(N4C5CCC4COC5)nc(-c4ccc(NC(=O)Nc5ccc(N6CCN(C)CC6)nc5)cc4)nc32)CC1 [Example 365, methyl 4-{6-[4-({[6-(4-methylpiperazin-1-yl)pyridin-3-yl]carbamoyl}amino)phenyl]-4-(3-oxa-8-azabicyclo[3.2.1]oct-8-yl)-1H-pyrazolo[3,4-d]pyrimidin-1-yl}piperidine-1-carboxylate] | 12 |  |  |  | 4 | 0.795 | 4530 | 2590 |
| CNC(=O)Nc1ccc(-c2nc(N3CC4CCC(C3)O4)c3cnn(C(COC)COC)c3n2)cc1 [Example 319, 1-(4-{1-[2-methoxy-1-(methoxymethyl)ethyl]-4-(8-oxa-3-azabicyclo[3.2.1]oct-3-yl)-1H-pyrazolo[3,4-d]pyrimidin-6-yl}phenyl)-3-methylurea] | 900 |  |  |  | 240 | 13.5 | > 10000 | 628 |
| COC(=O)N1CCC(n2ncc3c(N4C5CCC4COC5)nc(-c4ccc(NC(=O)Nc5ccc(N6CCN(C)CC6)cc5)cc4)nc32)CC1 [Example 363, methyl 4-{6-[4-({[4-(4-methylpiperazin-1-yl)phenyl]carbamoyl}amino)phenyl]-4-(3-oxa-8-azabicyclo[3.2.1]oct-8-yl)-1H-pyrazolo[3,4-d]pyrimidin-1-yl}piperidine-1-carboxylate] | 1 |  |  |  | < 1 | 0.545 | 3240 | 1590 |
| COC(=O)Nc1ccc(-c2nc(N3CC4CCC(C3)O4)c3cnn(CCN(C)C)c3n2)cc1 [Example 154, methyl (4-{1-[2-(dimethylamino)ethyl]-4-(8-oxa-3-azabicyclo[3.2.1]oct-3-yl)-1H-pyrazolo[3,4-d]pyrimidin-6-yl}phenyl)carbamate] | 19000 | 85 | > 10000 | 4280 | 2900 |  |  |  |
| CCn1ncc2c(N3CC4CCC(C3)O4)nc(-c3ccc(NC(=O)Nc4ccc(OCCO)nc4)cc3)nc21 [Example 282, 1-{4-[1-ethyl-4-(8-oxa-3-azabicyclo[3.2.1]oct-3-yl)-1H-pyrazolo[3,4-d]pyrimidin-6-yl]phenyl}-3-[6-(2-hydroxyethoxy)pyridin-3-yl]urea] | 21 | 0.3 | 1160 | 166 | 5 |  |  |  |
